Data published in the NIST ThermoML archive (doi:10.1021/je049743g).
Several values for one entry are separate records, joined by “and”; a condition that tells them apart may be missing. Identical values can stand only once. ± gives the expanded uncertainty stated by the source.

Test: wn = mass fraction of the nth substance listed
Conditions: Capillary rise

FC(C(F)(F)F)C(F)(F)F [1,1,1,2,3,3,3-heptafluoropropane] + FCF
Conditions | surface tension liquid-gas
252.66 K, w2 = 0.3988 | 12.74 ± 0.31 mN/m and 12.77 ± 0.31 mN/m
252.82 K, w2 = 0.3003 | 12.41 ± 0.3 mN/m
254.68 K, w2 = 0.3983 | 12.35 ± 0.31 mN/m and 12.37 ± 0.31 mN/m
254.83 K, w2 = 0.544 | 12.71 ± 0.31 mN/m
255.1 K, w2 = 0.2998 | 12.14 ± 0.31 mN/m and 12.13 ± 0.31 mN/m
256.92 K, w2 = 0.354 | 11.85 ± 0.31 mN/m
257.09 K, w2 = 0.5434 | 12.37 ± 0.31 mN/m and 12.38 ± 0.31 mN/m
257.1 K, w2 = 0.2993 | 11.77 ± 0.31 mN/m and 11.79 ± 0.31 mN/m
257.1 K, w2 = 0.3977 | 12.02 ± 0.31 mN/m and 12.03 ± 0.31 mN/m
258.83 K, w2 = 0.5429 | 11.97 ± 0.31 mN/m
258.84 K, w2 = 0.7282 | 12.63 ± 0.31 mN/m and 12.65 ± 0.31 mN/m
258.88 K, w2 = 0.3972 | 11.74 ± 0.3 mN/m
259 K, w2 = 0.2988 | 11.52 ± 0.3 mN/m and 11.51 ± 0.3 mN/m
260.89 K, w2 = 0.3528 | 11.26 ± 0.3 mN/m and 11.25 ± 0.3 mN/m
260.99 K, w2 = 0.5423 | 11.65 ± 0.3 mN/m
261.01 K, w2 = 0.2982 | 11.3 ± 0.31 mN/m
261.05 K, w2 = 0.3966 | 11.49 ± 0.31 mN/m and 11.48 ± 0.31 mN/m
262.75 K, w2 = 0.2977 | 11 ± 0.31 mN/m and 10.97 ± 0.31 mN/m
262.79 K, w2 = 0.3521 | 11.06 ± 0.3 mN/m
262.8 K, w2 = 0.7274 | 12.12 ± 0.31 mN/m and 12.08 ± 0.31 mN/m
262.85 K, w2 = 0.3961 | 11.14 ± 0.3 mN/m
262.96 K, w2 = 0.5417 | 11.34 ± 0.31 mN/m
262.98 K, w2 = 0.3961 | 11.14 ± 0.3 mN/m and 11.18 ± 0.31 mN/m
264.66 K, w2 = 0.727 | 11.63 ± 0.31 mN/m and 11.62 ± 0.31 mN/m
264.68 K, w2 = 0.5412 | 11.11 ± 0.31 mN/m and 11.09 ± 0.31 mN/m
264.87 K, w2 = 0.3955 | 10.9 ± 0.31 mN/m and 10.92 ± 0.31 mN/m
264.88 K, w2 = 0.3514 | 10.71 ± 0.31 mN/m and 10.75 ± 0.31 mN/m
264.96 K, w2 = 0.297 | 10.65 ± 0.31 mN/m
266.51 K, w2 = 0.2966 | 10.42 ± 0.3 mN/m and 10.44 ± 0.3 mN/m
266.75 K, w2 = 0.5405 | 10.75 ± 0.3 mN/m and 10.74 ± 0.3 mN/m
266.88 K, w2 = 0.3507 | 10.44 ± 0.3 mN/m and 10.47 ± 0.3 mN/m
267.04 K, w2 = 0.3948 | 10.5 ± 0.31 mN/m and 10.52 ± 0.31 mN/m
268.37 K, w2 = 0.296 | 10.2 ± 0.3 mN/m and 10.23 ± 0.3 mN/m
268.37 K, w2 = 0.54 | 10.53 ± 0.31 mN/m and 10.52 ± 0.31 mN/m
268.63 K, w2 = 0.7261 | 11.05 ± 0.31 mN/m and 11 ± 0.31 mN/m
268.72 K, w2 = 0.3943 | 10.33 ± 0.3 mN/m
268.79 K, w2 = 0.35 | 10.2 ± 0.3 mN/m and 10.23 ± 0.3 mN/m
270.7 K, w2 = 0.3936 | 10.06 ± 0.31 mN/m and 10.03 ± 0.31 mN/m
270.78 K, w2 = 0.3493 | 9.92 ± 0.3 mN/m
270.78 K, w2 = 0.5392 | 10.1 ± 0.31 mN/m
270.81 K, w2 = 0.2952 | 9.83 ± 0.3 mN/m and 9.86 ± 0.3 mN/m
272.17 K, w2 = 0.7252 | 10.38 ± 0.3 mN/m
272.9 K, w2 = 0.2945 | 9.56 ± 0.3 mN/m and 9.6 ± 0.3 mN/m
272.91 K, w2 = 0.7249 | 10.28 ± 0.31 mN/m
273.15 K, w2 = 0.3928 | 9.64 ± 0.31 mN/m and 9.66 ± 0.31 mN/m
273.15 K, w2 = 0.5383 | 9.73 ± 0.3 mN/m
273.6 K, w2 = 0.3482 | 9.51 ± 0.31 mN/m
275.16 K, w2 = 0.2937 | 9.29 ± 0.3 mN/m and 9.31 ± 0.3 mN/m
275.3 K, w2 = 0.392 | 9.26 ± 0.3 mN/m and 9.29 ± 0.3 mN/m
275.48 K, w2 = 0.5375 | 9.44 ± 0.3 mN/m
275.5 K, w2 = 0.3474 | 9.19 ± 0.3 mN/m and 9.23 ± 0.3 mN/m
275.5 K, w2 = 0.7242 | 9.87 ± 0.3 mN/m and 9.89 ± 0.3 mN/m
276.85 K, w2 = 0.2931 | 9.01 ± 0.3 mN/m and 9.05 ± 0.3 mN/m
277.27 K, w2 = 0.3913 | 9.02 ± 0.3 mN/m and 9.06 ± 0.3 mN/m
277.3 K, w2 = 0.7237 | 9.66 ± 0.3 mN/m and 9.65 ± 0.3 mN/m
277.39 K, w2 = 0.3466 | 8.95 ± 0.3 mN/m and 8.98 ± 0.3 mN/m
277.43 K, w2 = 0.5367 | 9.29 ± 0.3 mN/m
279.39 K, w2 = 0.7231 | 9.32 ± 0.31 mN/m and 9.34 ± 0.31 mN/m
279.42 K, w2 = 0.2921 | 8.71 ± 0.3 mN/m
279.43 K, w2 = 0.5359 | 8.92 ± 0.31 mN/m
279.46 K, w2 = 0.3457 | 8.67 ± 0.3 mN/m
279.6 K, w2 = 0.3904 | 8.74 ± 0.3 mN/m and 8.76 ± 0.3 mN/m
281.21 K, w2 = 0.3898 | 8.45 ± 0.3 mN/m and 8.46 ± 0.3 mN/m
281.3 K, w2 = 0.5351 | 8.65 ± 0.3 mN/m and 8.64 ± 0.3 mN/m
281.45 K, w2 = 0.3448 | 8.4 ± 0.3 mN/m and 8.41 ± 0.3 mN/m
281.51 K, w2 = 0.2913 | 8.39 ± 0.3 mN/m
281.54 K, w2 = 0.7224 | 8.9 ± 0.31 mN/m and 8.93 ± 0.31 mN/m
283.11 K, w2 = 0.2907 | 8.2 ± 0.3 mN/m
283.17 K, w2 = 0.389 | 8.23 ± 0.3 mN/m
283.29 K, w2 = 0.7219 | 8.59 ± 0.3 mN/m and 8.61 ± 0.3 mN/m
283.3 K, w2 = 0.5342 | 8.39 ± 0.31 mN/m and 8.4 ± 0.31 mN/m
283.49 K, w2 = 0.3439 | 8.13 ± 0.3 mN/m
284.67 K, w2 = 0.5336 | 8.04 ± 0.3 mN/m and 8.07 ± 0.3 mN/m
285.18 K, w2 = 0.7212 | 8.37 ± 0.3 mN/m
285.19 K, w2 = 0.3882 | 7.93 ± 0.3 mN/m and 7.99 ± 0.3 mN/m
285.24 K, w2 = 0.2898 | 7.93 ± 0.3 mN/m and 7.9 ± 0.3 mN/m
285.46 K, w2 = 0.343 | 7.94 ± 0.3 mN/m and 7.95 ± 0.3 mN/m
286.62 K, w2 = 0.3876 | 7.79 ± 0.3 mN/m
286.86 K, w2 = 0.2891 | 7.75 ± 0.3 mN/m and 7.71 ± 0.3 mN/m
287.47 K, w2 = 0.342 | 7.57 ± 0.3 mN/m
287.63 K, w2 = 0.5322 | 7.69 ± 0.3 mN/m and 7.73 ± 0.3 mN/m
289.31 K, w2 = 0.5314 | 7.44 ± 0.3 mN/m and 7.45 ± 0.3 mN/m
289.33 K, w2 = 0.7197 | 7.78 ± 0.31 mN/m
289.37 K, w2 = 0.288 | 7.41 ± 0.31 mN/m
289.37 K, w2 = 0.3411 | 7.34 ± 0.3 mN/m and 7.38 ± 0.3 mN/m
289.42 K, w2 = 0.3863 | 7.45 ± 0.3 mN/m
289.68 K, w2 = 0.2879 | 7.29 ± 0.31 mN/m
289.89 K, w2 = 0.7195 | 7.55 ± 0.3 mN/m and 7.53 ± 0.3 mN/m
290.16 K, w2 = 0.386 | 7.2 ± 0.31 mN/m
291.25 K, w2 = 0.2872 | 7.12 ± 0.31 mN/m
291.47 K, w2 = 0.34 | 7.14 ± 0.3 mN/m
291.47 K, w2 = 0.5304 | 7.13 ± 0.31 mN/m and 7.18 ± 0.3 mN/m
291.5 K, w2 = 0.3854 | 7.05 ± 0.31 mN/m and 7.03 ± 0.3 mN/m
291.53 K, w2 = 0.2871 | 7.07 ± 0.31 mN/m and 7.05 ± 0.31 mN/m
291.66 K, w2 = 0.3853 | 7.07 ± 0.31 mN/m and 7.11 ± 0.3 mN/m
291.67 K, w2 = 0.5303 | 7.18 ± 0.31 mN/m and 7.16 ± 0.31 mN/m
291.93 K, w2 = 0.7187 | 7.33 ± 0.3 mN/m and 7.35 ± 0.3 mN/m
293.1 K, w2 = 0.2864 | 6.87 ± 0.3 mN/m
293.2 K, w2 = 0.3391 | 6.83 ± 0.3 mN/m and 6.87 ± 0.3 mN/m
293.46 K, w2 = 0.2862 | 6.81 ± 0.3 mN/m and 6.79 ± 0.31 mN/m
293.53 K, w2 = 0.5293 | 6.9 ± 0.3 mN/m
293.53 K, w2 = 0.7181 | 7.06 ± 0.3 mN/m and 7.09 ± 0.3 mN/m
293.8 K, w2 = 0.3843 | 6.67 ± 0.3 mN/m and 6.69 ± 0.3 mN/m
